Laboratory results published in patent EP3536368B1, “DRY POWDER INHALER COMPRISING A SEROTONIN RECEPTOR AGONIST AND A DIKETOPIPERAZINE FOR TREATING MIGRAINES” (MannKind Corporation, priority 2010, dated 2012).
Read-outs that look alike come from different tables or passages of the source.

Tests used:
[1] = rat, in vivo
[2] = tested on: migraine model in anesthetized dogs; experiment: Pharmacodynamic study, capsaicin-induced carotid vasodilation migraine model; type: in vivo, Beagle Dogs; conditions: regardless of the route of administration
in vivo = conditions: female, Sprague Dawley, rat, iv

For CNS(=O)(=O)Cc1ccc2[nH]cc(CCN(C)C)c2c1 [Sumatriptan, sumatriptan], which tolerability [1] is on record?
Its tolerability is “well tolerated”.

And the AUC ([1]; iv)?
Its AUC is 273,729 (min,ng/mL)mg.

What about the Cmax ([1]; iv) of the same compound?
Its Cmax is 26,719 ng/mL/mg.

What about the AUC ([1]; sc) of the same compound?
Its AUC is 99,583 (min,ng/mL)mg.

And the Cmax ([1]; sc)?
The Cmax was 2309 ng/mL/mg.

And the “Blood pressure and heart rate” value [2]?
The value was “unaltered”.

And the half-life (in vivo)?
The half-life was 5.07 h.
